In patent US11634447B2 (priority 2012, dated 2023):
pIC50: −log10 of the molar value.

target: bacterial strain LF82 binding to the glycoprotein BSA-(Mannose)3; assay: Bacterial Binding Assay (BBA); assay type: cell-based, Escherichia coli; details: LF82/Luciferase strain binding to BSA-(Man)3 coated plates, luminescence; read-out: Bacterial Binding Assay IC50
How it was run: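 Inhibition of LF82/luciferase E. coli adhesion is read as luminescence after washing off unbound cells. Compound and bacteria (10^7 per well) are co-incubated 40-75 min at room temperature on wells coated with 0.5-2 μg/mL BSA-(Man)3, with BSA-only wells as background; IC50 values derived.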

Q: With `OC[C@H]1O[C@H](C#Cc2ccc3c(c2)C2(CC(O)C(O)CO2)c2cc(C#C[C@H]4O[C@H](CO)[C@@H](O)[C@H](O)[C@@H]4O)ccc2-3)[C@@H](O)[C@@H](O)[C@@H]1O` (some centres unmarked) [Compound 197] as the compound, how does the pIC50 read?
A: The pIC50 was 9.08.

same assay, conditions: read-out: Bacterial Binding Assay IC50, LF82/Luciferase strain binding to BSA-(Man)3 coated plates, luminescence

Q: With `OC[C@H]1O[C@H](C#Cc2ccc(C#C[C@H]3O[C@H](CO)[C@@H](O)[C@H](O)[C@@H]3O)c(F)c2F)[C@@H](O)[C@@H](O)[C@@H]1O` [Compound 78, (2R,3S,4R,5S,6R)-2-[2-[2,3-difluoro-4-[2-[(2R,3S,4R,5S,6R)-3,4,5-trihydroxy-6-(hydroxymethyl)tetrahydropyran-2-yl]ethynyl]phenyl]ethynyl]-6-(hydroxymethyl)tetrahydropyran-3,4,5-triol] as the compound, how does the pIC50 read?
A: Its pIC50 is 7.20.

Q: `OC[C@H]1O[C@H](c2ccc(-c3ccc([C@H]4O[C@H](CO)[C@@H](O)[C@H](O)[C@@H]4O)cc3F)cc2)[C@@H](O)[C@@H](O)[C@@H]1O` [Compound 62] was tested. Which pIC50 did it give?
A: The pIC50 was 7.17.

Q: How did the pIC50 turn out when `CC1(O)c2cc(C#C[C@H]3O[C@H](CO)[C@@H](O)[C@H](O)[C@@H]3O)ccc2-c2ccc(C#C[C@H]3O[C@H](CO)[C@@H](O)[C@H](O)[C@@H]3O)cc21` [Compound 115, (2R,3S,4R,5S,6R)-2-(hydroxymethyl)-6-[2-[9-hydroxy-9-methyl-7-[2-[(2R,3S,4R,5S,6R)-3,4,5-trihydroxy-6-(hydroxymethyl)tetrahydropyran-2-yl]ethynyl]fluoren-2-yl]ethynyl]tetrahydropyran-3,4,5-triol] was run?
A: Its pIC50 is 8.41.

Q: How did the pIC50 turn out when `CC(C)C(=O)N1CCC2(CC1)c1cc(C#C[C@H]3O[C@H](CO)[C@@H](O)[C@H](O)[C@@H]3O)ccc1-c1ccc(C#C[C@H]3O[C@H](CO)[C@@H](O)[C@H](O)[C@@H]3O)cc12` [Compound 224, 1-[2,7-bis[2-[(2R,3S,4R,5S,6R)-3,4,5-trihydroxy-6-(hydroxymethyl)tetrahydropyran-2-yl]ethynyl]spiro[fluorene-9,4piperidine]-1yl]-2-methyl-propan-l-one] was run?
A: The pIC50 was 10.10.

Q: With `Cn1cc(C(=O)c2c(C#C[C@H]3O[C@H](CO)[C@@H](O)[C@H](O)[C@@H]3O)ccc3c2C2(CCNCC2)c2cc(C#C[C@H]4O[C@H](CO)[C@@H](O)[C@H](O)[C@@H]4O)ccc2-3)cn1` [Compound 245, [2,7-bis[2-[(2R,3S,4R,5S,6R)-3,4,5-trihydroxy-6-(hydroxymethyl)tetrahydropyran-2-yl]ethynyl]spiro[fluorene-9,4piperidine]-1yl]-(1-methylpyrazol-4-yl)methanone] as the compound, how does the pIC50 read?
A: Its pIC50 is 9.85.

Q: How did the pIC50 turn out when `CCn1c2cc(C#C[C@H]3O[C@H](CO)[C@@H](O)[C@H](O)[C@@H]3O)ccc2c2ccc(C#C[C@H]3O[C@H](CO)[C@@H](O)[C@H](O)[C@@H]3O)cc21` [Compound 111, (2R,3S,4R,5S,6R)-2-[2-[9-ethyl-7-[2-[(2R,3S,4R,5S,6R)-3,4,5-trihydroxy-6-(hydroxymethyl)tetrahydropyran-2-yl]ethynyl]carbazol-2-yl]ethynyl]-6-(hydroxymethyl)tetrahydropyran-3,4,5-triol] was run?
A: The pIC50 was 8.68.

Q: `OC[C@H]1O[C@H](C#Cc2ccc3c(c2)C2(CCCCO2)c2cc(C#C[C@H]4O[C@H](CO)[C@@H](O)[C@H](O)[C@@H]4O)ccc2-3)[C@@H](O)[C@@H](O)[C@@H]1O` (some centres unmarked) [Compound 199] was tested. Which pIC50 did it give?
A: The pIC50 was 9.68.

Q: With `CN(C)CC(O)Cn1c2ccc(C#C[C@H]3O[C@H](CO)[C@@H](O)[C@H](O)[C@@H]3O)cc2c2cc(C#C[C@H]3O[C@H](CO)[C@@H](O)[C@H](O)[C@@H]3O)ccc21` (stereo partly drawn) [Compound 173, (2R,3S,4R,5S,6R)-2-[2-[9-[3-(dimethylamino)-2-hydroxy-propyl]-6-[2-[(2R,3S,4R,5S,6R)-3,4,5-trihydroxy-6-(hydroxymethyl)tetrahydropyran-2-yl]ethynyl]carbazol-3-yl]ethynyl]-6-(hydroxymethyl)tetrahydropyran-3,4,5-triol] as the compound, how does the pIC50 read?
A: The pIC50 was 8.03.

Q: With `OC[C@H]1O[C@H](C#Cc2ccc(C#C[C@H]3O[C@H](CO)[C@@H](O)[C@H](O)C3O)cc2)[C@@H](O)[C@@H](O)[C@@H]1O` (stereo in doubt) [Compound 69, (2R,3 S,4R,5R,6R)-2-(hydroxymethyl)-6-[2-[4-[2-[(2R,3 S,4R,5 S,6R)-3,4,5-trihydroxy-6-(hydroxymethyl)tetrahydropyran-2-yl]ethynyl]phenyl]ethynyl]tetrahydropyran-3,4,5-triol] as the compound, how does the pIC50 read?
A: Its pIC50 is 7.18.

Q: `CCOC(=O)Cn1c2cc(C#C[C@H]3O[C@H](CO)[C@@H](O)[C@H](O)[C@@H]3O)ccc2c2ccc(C#C[C@H]3O[C@H](CO)[C@@H](O)[C@H](O)[C@@H]3O)cc21` [Compound 175, ethyl 2-[2,7-bis[2-[(2R,3S,4R,5S,6R)-3,4,5-trihydroxy-6-(hydroxymethyl)tetrahydropyran-2-yl]ethynyl]carbazol-9-yl]acetate] was tested. Which pIC50 did it give?
A: Its pIC50 is 8.19.

Q: With `OC[C@H]1O[C@H](C#Cc2cc(-c3ccccc3)c(C#C[C@H]3O[C@H](CO)[C@@H](O)[C@H](O)[C@@H]3O)cc2-c2ccccc2)[C@@H](O)[C@@H](O)[C@@H]1O` [Compound 81, (2R,3S,4R,5S,6R)-2-[2-[2,5-dipheny1-4[2-[(2R,3S,4R,5S,6R)-3,4,5-trihydroxy-6-(hydroxymethyl)tetrahydropyran-2-yl]ethynyl]phenyl]ethynyl]-6-(hydroxymethyl)tetrahydropyran-3,4,5-triol] as the compound, how does the pIC50 read?
A: Its pIC50 is 8.05.

Q: With `CC(C)c1cc(C#C[C@H]2O[C@H](CO)[C@@H](O)[C@H](O)[C@@H]2O)ccc1C#C[C@H]1O[C@H](CO)[C@@H](O)[C@H](O)[C@@H]1O` [Compound 103, (2R,3S,4R,5S,6R)-2-(hydroxymethyl)-6-[2-[3-isopropyl-4-[2-[(2R,3S,4R,5S,6R)-3,4,5-trihydroxy-6-(hydroxymethyl)tetrahydropyran-2-yl]ethynyl]phenyl]ethynyl]tetrahydropyran-3,4,5-triol] as the compound, how does the pIC50 read?
A: The pIC50 was 8.13.

Q: With `Cc1cc([C@H]2O[C@H](CO)[C@@H](O)[C@H](O)[C@@H]2O)ccc1-c1ccc([C@H]2O[C@H](CO)[C@@H](O)[C@H](O)[C@@H]2O)cc1` [Compound 63] as the compound, how does the pIC50 read?
A: The pIC50 was 6.95.

Q: With `OC[C@H]1O[C@H](C#Cc2ccc3c(c2)c2cc(C#C[C@H]4O[C@H](CO)[C@@H](O)[C@H](O)[C@@H]4O)ccc2n3-c2ccccc2)[C@@H](O)[C@@H](O)[C@@H]1O` [Compound 164] as the compound, how does the pIC50 read?
A: The pIC50 was 7.46.

Q: `O=C(c1cnccn1)c1c(C#C[C@H]2O[C@H](CO)[C@@H](O)[C@H](O)[C@@H]2O)ccc2c1C1(CCNCC1)c1cc(C#C[C@H]3O[C@H](CO)[C@@H](O)[C@H](O)[C@@H]3O)ccc1-2` [Compound 236, [2,7-bis[2-[(2R,3S,4R,5S,6R)-3,4,5-trihydroxy-6-(hydroxymethyl)tetrahydropyran-2-yl]ethynyl]spiro[fluorene-9,4piperidine]-1yl]-pyrazin-2-yl-methanone] was tested. Which pIC50 did it give?
A: The pIC50 was 9.30.

Q: `CN1CCN(C2c3cc(C#C[C@H]4O[C@H](CO)[C@@H](O)[C@H](O)[C@@H]4O)ccc3-c3ccc(C#C[C@H]4O[C@H](CO)[C@@H](O)[C@H](O)[C@@H]4O)cc32)CC1` [Compound 198, (2R,3S,4R,5S,6R)-2-(hydroxymethyl)-6-[2-[9-(4-methylpiperazin-1-yl)-7-[2-[(2R,3S,4R,5S,6R)-3,4,5-trihydroxy-6-(hydroxymethyl)tetrahydropyran-2-yl]ethynyl]-9H-fluoren-2-yl]ethynyl]tetrahydropyran-3,4,5-triol] was tested. Which pIC50 did it give?
A: Its pIC50 is 7.62.

Q: How did the pIC50 turn out when `OC[C@H]1O[C@H](C#Cc2ccc(C#C[C@H]3O[C@H](CO)[C@@H](O)[C@H](O)[C@@H]3O)c(OC(F)(F)F)c2)[C@@H](O)[C@@H](O)[C@@H]1O` [Compound 87, (2R,3S,4R,5S,6R)-2-(hydroxymethyl)-6-[2-[3-(trifluoromethoxy)-4-[2-[(2R,3S,4R,5S,6R)-3,4,5-trihydroxy-6-(hydroxymethyl)tetrahydropyran-2-yl]ethynyl]phenyl]ethynyl]tetrahydropyran-3,4,5-triol] was run?
A: The pIC50 was 7.77.

Q: How did the pIC50 turn out when `COC(=O)Cc1cc(-c2cccc([C@H]3O[C@H](CO)[C@@H](O)[C@H](O)[C@@H]3O)c2)ccc1-c1cccc([C@H]2O[C@H](CO)[C@@H](O)[C@H](O)[C@@H]2O)c1` [Compound 140, Methyl 2-[2,5-bis[3-[(2R,3S,4R,5S,6R)-3,4,5-trihydroxy-6-(hydroxymethyl)tetrahydropyran-2-yl]phenyl]phenyl]acetate] was run?
A: The pIC50 was 6.45.

Q: `OC[C@H]1O[C@H](C#Cc2cccc3cccc(C#C[C@H]4O[C@H](CO)[C@@H](O)[C@H](O)[C@@H]4O)c23)[C@@H](O)[C@@H](O)[C@@H]1O` [Compound 137, (2R,3S,4R,5S,6R)-2-(hydroxymethyl)-6-[2-[8-[2-[(2R,3S,4R,5S,6R)-3,4,5-trihydroxy-6-(hydroxymethyl)tetrahydropyran-2-yl]ethynyl]-1-naphthyl]ethynyl]tetrahydropyran-3,4,5-triol] was tested. Which pIC50 did it give?
A: Its pIC50 is 6.15.

Q: `Cc1cc([C@H]2O[C@H](CO)[C@@H](O)[C@H](O)[C@@H]2O)ccc1C#C[C@H]1O[C@H](CO)[C@@H](O)[C@H](O)[C@@H]1O` [Compound 143] was tested. Which pIC50 did it give?
A: Its pIC50 is 6.62.

Q: How did the pIC50 turn out when `OC[C@H]1O[C@H](C#Cc2ccc3c(c2)C2(CCNCC2)c2cc(C#C[C@H]4O[C@H](CO)[C@@H](O)[C@H](O)[C@@H]4O)ccc2-3)[C@@H](O)[C@@H](O)[C@@H]1O` [Compound 192, (2R,3S,4R,5S,6R)-2-(Hydroxymethyl)-6-[2-[7-[2-[(2R,3S,4R,5S,6R)-3,4,5-trihydroxy-6-(hydroxymethyl)tetrahydropyran-2-yl]ethynyl]spiro[fluorene-9,4piperidine]-2-yl]ethynyl]tetrahydropyran-3,4,5-triol] was run?
A: Its pIC50 is 8.49.

Q: With `COc1cc(C#C[C@H]2O[C@H](CO)[C@@H](O)[C@H](O)[C@@H]2O)c(OC)cc1C#C[C@H]1O[C@H](CO)[C@@H](O)[C@H](O)[C@@H]1O` [Compound 96, (2R,3S,4R,5S,6R)-2-[2-[2,5-dimethoxy-4-[2-[(2R,3S,4R,5S,6R)-3,4,5-trihydroxy-6-(hydroxymethyl)tetrahydropyran-2-yl]ethynyl]phenyl]ethynyl]-6-(hydroxymethyl)tetrahydropyran-3,4,5-triol] as the compound, how does the pIC50 read?
A: The pIC50 was 7.18.
